Values after ≈ are worked out from the molar mass of the structure shown. Residues, ends and D or L forms follow the SMILES beside them. *: point of attachment. Cbz = O=C(OCc1ccccc1)*
Columns and labels:
[1] = Selectivity index, ratio of ED50 for human HL60 cells to ED50 for Trypanosoma brucei brucei; assay type: toxicity, cell-based, HL-60; conditions: read-out: Ratio ED50
[2] = system: Trypanosoma brucei brucei; assay: Antitrypanosomal activity against blood stream form of Trypanosoma brucei brucei; assay type: functional, organism-based; conditions: for EC50: read-out: ED50 (the source's name)
[3] = system: Trypanosoma brucei brucei; assay: Antitrypanosomal activity against procyclic form of Trypanosoma brucei brucei; assay type: functional; conditions: read-out: ED50 (the source's name)
[4] = Oral bioavailability in Sprague-Dawley rat; assay type: ADME, organism-based; conditions: in vivo
[5] = Inhibition of Trypanosoma brucei recombinant rhodesain
[6] = system: Trypanosoma brucei; assay: Inhibition of Trypanosoma brucei rhodesain assessed as second order rate constant
[7] = Cytotoxicity against human HL60 cells; assay type: cell-based, HL-60; conditions: for CC50: read-out: ED50 (the source's name); for MCC: read-out: MIC
[8] = target: Trypsin (Homo sapiens, UniProt P07477+P07478+P35030); assay: Inhibition of trypsin (unknown origin); assay type: protein assay
[9] = Inhibition of Trypanosoma brucei rhodesain
[10] = target: Cruzipain (Trypanosoma cruzi, UniProt P25779); assay: Inhibition of Trypanosoma cruzi cruzain
Chain of Cruzipain (P25779 whole entry): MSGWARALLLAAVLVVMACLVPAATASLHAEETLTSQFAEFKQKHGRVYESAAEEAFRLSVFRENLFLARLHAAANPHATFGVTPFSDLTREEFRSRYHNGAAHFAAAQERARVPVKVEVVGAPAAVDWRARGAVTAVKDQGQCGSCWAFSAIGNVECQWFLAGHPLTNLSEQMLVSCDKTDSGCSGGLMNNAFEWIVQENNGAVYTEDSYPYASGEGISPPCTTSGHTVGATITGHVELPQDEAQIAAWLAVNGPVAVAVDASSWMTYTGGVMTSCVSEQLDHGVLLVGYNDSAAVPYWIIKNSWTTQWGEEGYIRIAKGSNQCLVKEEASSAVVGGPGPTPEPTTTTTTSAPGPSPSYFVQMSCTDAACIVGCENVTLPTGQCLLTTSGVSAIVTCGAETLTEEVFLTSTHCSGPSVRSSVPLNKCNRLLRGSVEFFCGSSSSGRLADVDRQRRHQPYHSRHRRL

[11] = Inhibition of cathepsin B (unknown origin); set-up: species or system Homo sapiens
[12] = target: T1, Papain (Carica papaya, UniProt P00784); assay: Inhibition of papaya papain
T1 sequence (P00784 whole entry): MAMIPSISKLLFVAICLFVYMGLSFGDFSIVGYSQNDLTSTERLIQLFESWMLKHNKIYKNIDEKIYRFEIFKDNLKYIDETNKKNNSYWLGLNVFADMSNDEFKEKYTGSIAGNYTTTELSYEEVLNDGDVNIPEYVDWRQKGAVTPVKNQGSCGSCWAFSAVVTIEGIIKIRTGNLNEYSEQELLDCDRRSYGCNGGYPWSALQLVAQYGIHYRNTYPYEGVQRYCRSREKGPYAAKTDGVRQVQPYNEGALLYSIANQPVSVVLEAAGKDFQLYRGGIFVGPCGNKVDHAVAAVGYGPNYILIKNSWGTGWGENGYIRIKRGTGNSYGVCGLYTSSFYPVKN

Compound | selectivity ratio [1] | EC50 [2] [µM] | EC50 [3] [µM] | bioavailability [4] [%] | IC50 [5] [µM] | K [6] | MIC [2] [µM] | CC50 [7] [µM] | MCC [7] [µM] | other results
Cc1ccc(C(=O)Nc2ccc(S(=O)(=O)O)c3cc(S(=O)(=O)O)cc(S(=O)(=O)O)c23)cc1NC(=O)c1cccc(NC(=O)Nc2cccc(C(=O)Nc3cc(C(=O)Nc4ccc(S(=O)(=O)O)c5cc(S(=O)(=O)O)cc(S(=O)(=O)O)c45)ccc3C)c2)c1 [SURAMIN] | 1900 | 0.13 |  |  |  |  |  |  |  | 
O=C(N[C@H](/C=C/S(=O)(=O)c1ccccc1)CCc1ccccc1)[C@H](Cc1ccccc1)NC(=O)N1CCOCC1 |  | 5.6 | 7.3 | 3 | 0.00036 |  |  |  |  | 
CC[C@H](C)[C@H](NS(=O)(=O)c1cccc2ccccc12)C(=O)N[C@H](C=O)Cc1c[nH]c2ccccc12 | 1150 | 0.018 |  |  |  | 3.54 ×10⁷ /M/min | 10 (≈ 4.92 µg/mL) | 21 | > 100 | 
O=C[C@H](Cc1ccc(O)cc1)NC(=O)[C@H](Cc1ccccc1)NC(=O)OCc1ccccc1 (Cbz-Phe-Tyr-aldehyde) | 482 | 0.045 |  |  |  | 1.38 ×10⁸ /M/min | 100 (≈ 44.7 µg/mL) | 21.5 | > 100 | 
CN1CCN(C(=O)N[C@@H](Cc2ccccc2)C(=O)N[C@H](/C=C/S(=O)(=O)c2ccccc2)CCc2ccccc2)CC1 [K-777] |  | 0.9 | 5.8 | 19.9 | 0.00035 | 9 ×10⁶ /M/min |  |  |  | 
Cn1nc(C(F)(F)F)cc1-c1ccc(NC(=O)Nc2cccc(C(F)(F)F)c2)s1 |  |  |  |  |  |  |  |  |  | IC50 [8]: > 50 µM; IC50 [9]: 3 µM; IC50 [10]: 3.1 µM; IC50 [11]: 11 µM; IC50 [12]: > 50 µM
